The results in this text go back to patent publication US20220339260A1, “METHOD FOR PRODUCING INSULIN-PRODUCING CELL USING DIHYDROINDOLIZINONE DERIVATIVES” (TOKYO INSTITUTE OF TECHNOLOGY, priority 2019, published 2022).

The subject of the first assay is human iPS cell Toe strain. Put plainly: Effect to promote differentiation from human iPS cells into insulin-producing cells (insulin-positive cell rate, Reference Example 1). Also noted: key to Activity: the sum of activity values at the two concentrations was obviously higher than the control untreated with compounds while being lower than the positive control was expressed as +; the sum was equivalent to the positive control was expressed as ++; the sum was higher than the positive control was expressed as +++. The conditions noted are these: activity intensity: sum of activity values (increment in insulin-positive cell rate) at 2 μM and 10 μM compared with positive control (compound of Synthesis Example 1). Format: cell-based. From the text:
The evaluation system of the effect (efficacy) to promote differentiation from human iPS cells into insulin-producing cells was constructed with reference to known information (Non Patent Document 6). Further, the medium used in each differentiation stage was also produced with reference to known information (differentiation media A to E (Media A to E) described in Non Patent Document 6 were used respectively for stages 1 to 5; however, a medium free from GLP-1 receptor agonist and nicotinamide was used as differentiation medium E).
In order to evaluate the efficacy of each compound, the compound of Synthesis Example 1 was used as a positive control, and dimethylsulfoxide (DMSO) (SIGMA, D2650) with a final concentration of 0.1% was used as a control untreated with compounds. Each compound was dissolved in DMSO, and two types of compound solutions were prepared so as to have final concentrations of 2 μM and 10 μM after the compound was added to the medium. In the following evaluation, the compound solutions were added to the medium to 0.1% that is the final concentration of DMSO.
First, induction from human iPS cell Toe strain (National Institutes of Biomedical Innovation, Health and Nutrition) into cells on day 7 of culture (2 days after replacement with differentiation medium C (cells in the differentiation process from FOXA2-positive primitive gut tube cells into PDX1-positive pancreatic progenitor cells)) was performed according to the method of Non Patent Document 6 for “inducing differentiation from human iPS cells into pancreatic β cells”, and the cells were collected and thereafter stored in liquid nitrogen using Bambanker (NIPPON Genetics Co, Ltd.) at 1×10^7 cells/mL/tube, to produce a cell stock for evaluation. The cell stock was dissolved at the start of the evaluation of efficacy, suspended in differentiation medium C for stage 3 (DMEM high glucose (Life technologies, 11965092), 0.25 μM SANT-1, 0.1 μM LDN193189 (Stemgent, 04-0074), 10 μM SB431542, 2 μM Retinoic acid (Stemgent, 04-0021), 1% B27 serum free supplement (Life technologies, 17504044) and thereafter seeded in a 96-well plate (Corning, #3340) coated with Synthemax II (Corning, #5656) at 1×10^5 cells/well. After culturing for 2 days, the medium was removed, and new differentiation medium C for stage 3 with the compound or only DMSO added was added thereto at 100 μL/well. After culturing for 2 days, the medium was removed, and new differentiation medium D for stage 4 (DMEM high glucose, 0.1 μM LDN193189, 5 μM TGF-β type I receptor kinase inhibitor II (Calbiochem 616452), 0.3 μM (−)-indolactam V (Enzo life science ALX-420-011-C300), 1% B27 serum free supplement) with the compound or only DMSO added was added thereto at 100 μL/well. After culturing for 2 to 3 days, the medium was removed, and new differentiation medium E for stage 5 (GLP-1 receptor agonist and nicotinamide-free; Knockout […] (Life technologies, 12660012), 1% B27 serum free supplement) with the compound or only DMSO added was added thereto at 200 μL/well. After culturing for 2 days, the medium was removed, and a 4% paraformaldehyde phosphorus acid buffer (Wako, 163-20145) was added thereto at 150 μL/well and left standing for 30 to 60 minutes at room temperature to fix the cells. A phosphorus acid buffer (PBS) (Takara, T9181) containing 1% Triton X-100 (Sigma, T8787) was left standing for 15 minutes at room temperature, then washed with PBS-T (Takara, T9183), and was blocked for 1 hour using 20% Blocking One (Nacalai tesque, Tokyo, Japan) diluted with PBS-T at room temperature. After the removal of Blocking One, guinea pig anti-insulin antibody (Abcam, ab7842) diluted 200-fold with 20% Blocking One was added thereto at 50 μL/well, followed by standing at 4° C. overnight. […]
Turning to `Cc1nc(NC(=O)C2CCC(=O)c3cccn32)sc1C1=CCN(C(=O)OC(C)(C)C)CC1` (centres unmarked) [Example 90], the Activity result was “+++”.
Regarding `O=C1CCC(C(=O)Nc2ccc(-c3ccc(OC(F)(F)F)cc3)cn2)n2cccc21` (centres unmarked) [Example 82], the Activity result is listed as “+”.
The same measure, in the same setting: next, `Cc1ccc(-c2cnc(NC(=O)C3CCC(=O)c4cccn43)s2)cc1` (centres unmarked) [Example 18]: “++”; `CC(C)c1nc(NC(=O)C2CCC(=O)c3cccn32)sc1-c1ccc(OC(F)(F)F)cc1` (centres unmarked) [Example 96]: “+”.
Regarding `O=C1CCC(C(=O)Nc2ccc(-c3ccc(OC(F)F)cc3)cc2)n2cccc21` (centres unmarked) [Example 75], the Activity result is on record as “+”.
As to `Cc1nc(NC(=O)C2CCC(=O)c3cccn32)sc1-c1ccc(OC(F)F)cc1` (centres unmarked) [Example 91], the Activity entry was “+++”.
In the case of `CC1(C(=O)Nc2ncc(-c3cccc(OC(F)(F)F)c3)s2)CCC(=O)c2cccn21` (centres unmarked) [Example 72], the Activity result is given as “+++”.
`Cc1cc(-c2ccc(OC(F)(F)F)cc2)ccc1NC(=O)C1CCC(=O)c2cccn21` (centres unmarked) [Example 81]: the Activity result is “+”.
For the molecule `O=C1CCC(C(=O)Nc2ncc(-c3cccc(Cl)c3)s2)n2cccc21` (centres unmarked) [Example 13], the Activity result is recorded as “++”.
With `CN(C)S(=O)(=O)c1ccc(-c2cnc(NC(=O)C3CCC(=O)c4cccn43)s2)cc1` (centres unmarked) [Example 42], the Activity result was “+”.
`O=C1CCC(C(=O)Nc2ncc(-c3ccccc3)s2)n2cccc21` (centres unmarked) [Example 1]: the Activity entry is “++”.
For `Cc1cc2n(c1)C(C(=O)Nc1ncc(-c3ccc(OC(C)(C)C)cc3)s1)CCC2=O` (centres unmarked) [Example 63], the Activity result was “+++”.
With `O=C1CCC(C(=O)Nc2ncc(C3=CCCCC3)s2)n2cccc21` (centres unmarked) [Example 50], the Activity entry is given as “+”.
In the case of `O=C1CCC(C(=O)Nc2ncc(-c3ccc(N4CCOCC4)cc3)s2)n2cccc21` (centres unmarked) [Example 41], the Activity result is reported as “+”.
Consider `Cc1cc(-c2cnc(NC(=O)C3CCC(=O)c4cccn43)s2)ccc1OC(F)(F)F` (centres unmarked) [Example 29], for which the Activity result is recorded as “+++”.
Take `O=C1CC(C(=O)Nc2ncc(-c3ccc(OC(F)(F)F)cc3)s2)n2cccc21` (centres unmarked) [Example 58]: the Activity result was “++”.

The test system of another assay is SK7 mouse ES cells. Put plainly: Screening for β cell differentiation enhancer using SK7 mouse ES cells (Pdx1-GFP). Type of assay: cell-based. The conditions noted are these: LY411575 alone. The method, then:
The SK7 mouse ES cells were differentiated into β cells basically according to the previous report (Nakashima et al., 2015). Briefly, the cells were seeded at 5,000 cells per well in CellBIND 384-well (CORNING, 3770) cell culture plate or at 20,000 cells per well in a 96-well plate (Sigma) coated with 0.2% gelatin. Then, the cells were cultured in medium 1 from days 1 to 5. Medium 1 consisted of DMEM (high glucose) (Life Technologies, 11965092) supplemented with 0.1 mM NEAA (Gibco, 11140-50), 2 mM L-glutamine (Nacalai, 16948-04), 100 U/mL penicillin-streptomycin (Nacalai, 26252-94), 0.01 mM β-mercaptoethanol (Sigma), 1% insulin-transferrin-selenium supplement (ITS: Life Technologies, 41400045), 0.25% Albumax (Thermo Fisher, 11020021), and 10 ng/mL recombinant human activin-A (R&D Systems, 338-AC). Subsequently, the cells were cultured for 1 day in medium 2 which consisted of medium 1 supplemented with 10 μM retinoic acid (Stemgent, 04-0021). On day 6, the medium was replaced with medium 3, and the culture was continued until day 12 in order to induce differentiation into β cells. Medium 3 consisted of DMEM (low glucose) (Life Technologies, 11885084) supplemented with 0.1 mM NEAA, 2 mM L-glutamine, 100 U/mL penicillin-streptomycin, 0.1 mM β-mercaptoethanol, 1% ITS, 0.25% Albumax, and 3 mM nicotinamide (Sigma-Aldrich, N0636-500G). A test compound was added on day 8, and the cells were fixed in 4% paraformaldehyde for analysis using a high-content imager.
A chemical library consisting of about 55,000 compounds was screened for a substance that induced β cell differentiation. […] Fluorescence images were quantified using Operetta high-content imaging system and Harmony image analysis software (PerkinElmer, Germany). The nuclei were identified by DAPI staining, and the positivity of antibody staining was determined from the fluorescence intensity of a cytoplasmic region surrounding the nucleus. The number of cells positive to both insulin and GFP was counted and normalized with the total number of DAPI-positive cells or a positive area. A median of quadruple data was calculated, and screening hits were defined as states in which the number of insulin- and GFP-positive cells was increased as compared with a DMSO control. […] The activity of the selected candidate compounds was further analyzed with Toe human iPS cell assay system in order to select a hit compound having effectiveness for both differentiation into mouse β cells and differentiation into human β cells. A compound was added as described above, and its effectiveness was evaluated from a mRNA expression level by q-PCR in triplet experiments. […]
For the molecule `C[C@H](NC(=O)[C@@H](O)c1cc(F)cc(F)c1)C(=O)N[C@@H]1C(=O)N(C)c2ccccc2-c2ccccc21` [LY411575, reference compound], the “number of Pdx1-GFP+Ins+ double-positive cells” value was “increase”.
